Assay results: patent US8729107B2, “Pyridines for treating injured mammalian nerve tissue” (Purdue Research Foundation, priority 2002, dated 2014)
Read-outs that look alike come from different tables or passages of the source.

Experiments:
[1] = test system: guinea pigs with compression injury to the mid-thoracic spinal cord; type: in vivo; conditions: for effective dosage producing improvement in the electrophysiological record: gavage; for Mean recovered EP (area beneath recovered EP normalized to pre-injury): gavage at 1 week post injury, Table 1; for tolerability of gavage: oral insertion in sedated guinea pigs; for failures to respond: by 4 hours after gavage
Description: “Somatosensory evoked potential testing (SSEP)” is a means of measuring ascending nerve impulse “traffic” in a “whole” animal. […] These volleys of evoked potentials are initiated by electrical stimulation of the tibial nerve of the hind leg of an animal, which induces ascending sensory volleys of nociceptive impulses to the contralateral sensory cortex of the brain in the intact animal. A severe spinal cord injury eliminates the ability of evoked potentials to cross the lesion and thus SSEPs are not recorded at the brain after lesioning. Quantitative evaluation of the recovery of SSEP conduction through the whole animal provides a more relevant indicator of the feasibility of these compounds to be useful in reversing behavioral loss after specific, localized, and standardized CNS injury. To eliminate the possibility that the failure to record SSEPs could be due to other factors, a control recording is carried out using the median nerve of the foreleg. Since this neural circuit is completely intact (that is—“above” the level of the spinal injury) normal SSEPs must be obtained after such “control” stimulation. FIG. 2 is a diagram of this testing protocol and provides examples of normal recordings in intact animals, the elimination of sensory impulses after a mid-thoracic spinal cord injury, and explains these issues in detail, as well as, emphasizing the importance of a median nerve control procedure.
During live animal testing using guinea pigs, novel pyridine derivatives of the instant invention were administered through a gastric tube to large adult guinea pigs which had previously received a standardized compression injury to their mid-thoracic spinal cords. The ability of these compounds to restore conduction in this second technique was determined by a quantitative evaluation of SSEPs. The following protocols and routes of administration were employed.
Prior to spinal cord injury, fully adult guinea pigs (Hardy strain, around 400 g) were lightly sedated with an intramuscular injection of Ketamine/Rompum and rendered immobile during the placement of stimulation and recording electrodes as illustrated in FIG. 2. A series of SSEP records were then taken subsequent to both tibial and median nerve stimulation in this normal animal. It should be noted here that all surgical procedures and physiological recordings were carried out on anesthetized animals. All animal studies were carried out under protocols approved by the University Animal Care and Use Committee, under strict adherence to University, State, and Federal guidelines for the use of animals in research.
Subsequently, a dorsal laminectomy surgical procedure was carried out exposing the dorsal (posterior) region of the mid-thoracic spinal cord within the vertebral column, the tough covering of the spinal cord (the dura) incised and removed, and the cord crushed by a standardized technique (constant displacement compression. Blight A R (1991a), Morphometric analysis of a model of spinal cord injury in guinea pigs, with behavioral evidence of delayed secondary pathology, J Neurol Sci 103:156-171; Borgens R B, Shi R, Bohnert D (2002), Behavioral recovery from spinal cord injury following delayed application of polyethylene glycol, J Exp Biol 205:1-12, both incorporated herein by reference.
[…] However, periodically physiological records were taken to monitor their status—and a final record at around 2 months post injury to confirm the chronic loss of ascending SSEP conduction through the mid-thoracic lesion.
After 8 weeks had elapsed and a “pre-drug application” electrical record obtained, the guinea pigs were lightly sedated and a test compound was administered directly into the stomach by a gastric tube (compounds were undissolved during introduction to the stomach, however, the gastric tube and any remnants of the compounds were flushed into the stomach by secondary introduction of less than 1 ml of distilled water). […]

[2] = test system: injured guinea pig spinal cord white matter; conditions: for increase in the amplitude of the recovered CAP: pre-drug recovered CAP normalized to 100%; for CAP amplitude after removal of the drug and wash: FIG. 8 electrical records, after washout; for concentration producing recovery of CAP conduction (effective/working concentration): drug added to bathing medium of central chamber; for CAP relative to pre-drug level: at the concentrations studied
[3] = test system: fast potassium channels (IA) in guinea pig DRG cells; test: Whole cell patch-clamp recording of voltage-gated potassium currents (Itotal, fast component IA); type: cell-based; conditions: for effect on fast potassium current (initial peak of Itotal): 5 mM in bath solution; for peak (fast activated) potassium current amplitude after treatment: 5 mM in bath, command potential +30 mV
[4] = test system: paralyzed persons with spinal cord injury; conditions: cited from earlier work
[5] = test system: delayed rectifier current Idr in guinea pig DRG cells; test: Whole cell patch-clamp recording of isolated delayed rectifier current; type: cell-based; conditions: depolarization holding potential; data not shown

Structure (SMILES)	effective dosage producing improvement in the electrophysiological record [1] [mg/kg]	Mean recovered EP (area beneath recovered EP normalized to pre-injury) [1]	tolerability of gavage [1]	enhancement of CAP conduction ([2]; 100 uM)	increase in the amplitude of the recovered CAP ([2]; 100 uM) [%]	CAP amplitude after removal of the drug and wash [2]	recovery of EP compared to 4-AP ([1]; 1 week post injury)	failures to respond [1]	indication of toxicity [2]	CAP relative to pre-drug level [2]	concentration producing recovery of CAP conduction (effective/working concentration) [2]	effect on fast potassium current (initial peak of Itotal) [3]	peak (fast activated) potassium current amplitude after treatment [3]	inhibition of Idr [5]	further results
COC(=O)Nc1ccncc1 [methyl carbamate (3), N-(4-Pyridyl)Methyl Carbamate]	0.37±0.2	78.0	uneventful	enhanced CAP conduction significantly	30.6±11.7	approximate pre-drug levels									cortical potential (P1) after administration ([1]; FIG. 3, 1 hour after gastric tube administration, 1 week post injury): nearly normal cortical potential; concentration producing recovery of CAP conduction (effective/working concentration) ([2]; listed as Methyl carbamate (3)): approximately 100 uM; concentration producing recovery of CAP conduction (effective/working concentration) ([2]; listed as carbamate (3)): 100 µM
CC(C)(C)OC(=O)Nc1ccncc1 [t-butyl carbamate (1), N-(4-Pyridyl) t-Butyl Carbamate]			not tolerated				significantly enhanced	no failures to respond	without any indication of toxicity	increase in CAP above the pre-drug level	1 µM				enhancement of CAP conduction ([2]; 1 uM): enhance CAP conduction significantly; increase in recovery CAP amplitude ([2]; printed 'at uM', n=5, relative to pre-drug CAP): 15.4±3.4%
Nc1ccncc1 [4-AP, 4-aminopyridine, reference compound]	0.47±0.04	40.0	uneventful					Two of the ten animals failed to respond			100 µM	largely blocked	2,574.91±446.8 pA	did not significantly inhibit	side effects at the concentrations required ([4]; human patients): numerous unwanted side effects; share of treated population with clinically meaningful recoveries of function ([4]; paralyzed persons): about 30%
Nc1ccncc1CO [4-AP-3-MeOH, 4-aminopyridine-3-methanol]												inhibit the fast potassium currents	2,434.20±543.4 pA	did not significantly inhibit	effect on IA over step voltage commands ([3]; step voltage commands from −50 to 40 mV): suppresses IA; increase of CAP conduction (not significant) ([2]; 0.01 μM, stretch-injured cord, mean±SE, n=5): 6.44±3.8%; increase of CAP conduction ([2]; 0.1 μM, stretch-injured cord, mean±SE, n=7): 12.73±3.2%; increase of CAP conduction ([2]; 1 μM, stretch-injured cord, mean±SE, n=6): 11.27±4.2%; increase of CAP conduction ([2]; 10 μM, stretch-injured cord, mean±SE, n=11): 13.35±5.9%; effect on CAP activation threshold ([2]; 100 μM, stimulus intensities 1.85 to 6.5 V): does not have a significant effect; CAP conduction across stimulus intensities ([2]; 100 μM, stimulus intensities 1.85 to 6.5 V, data not shown): increased CAP conduction at all stimuli intensity levels; increase of CAP conduction ([2]; 100 μM, stretch-injured cord, mean±SE, n=6): 21.51±4.5%; increase of CAP conduction (not significant) ([2]; 1 mM, stretch-injured cord, mean±SE, n=5): 6.72±8.3%; suppression of CAP conduction ([2]; 10 mM, stretch-injured cord, mean±SE, n=5): 18.48±8.1%; effect on axonal response to dual or multiple stimuli ([2]; injured spinal cord tissue): does not have a significant effect
CCOC(=O)Nc1ccncc1 [ethyl carbamate (2), N-(4-Pyridyl)Ethyl Carbamate]		41.5	uneventful	enhanced CAP conduction significantly	18.6±8.7	fallen back to pre-drug levels	did not meet significance	no failures to respond	without any indication of toxicity	increase in CAP above the pre-drug level	approximately 100 uM				recovery of CAP relative to 4-AP ([2]; 100 uM): slightly lower recovery of CAP than 4-AP; increase in the amplitude of the CAP in example electrical record ([2]; FIG. 8 panel A, about 1/2 hour after addition): ~20%; concentration producing recovery of CAP conduction (effective/working concentration) ([2]; listed as carbamate (2)): 100 µM
